Experiments:
Experiment in all cases: MIC, broth microdilution (CLSI), substance alone or ATB combined with compound at 4 or 8 μg/mL
Type in all cases: cell-based, A. baumannii
ABA UFR158 = tested on: ABA UFR158
Protocol: (§1) Compounds of the present invention were assessed against genotyped bacterial strains alone or in combination with an antibacterial. In the assays, MICs of said compounds or combination of antibiotics with fixed concentrations of said compounds (4 or 8 μg/mL) were determined by the broth microdilution method according to the Clinical Laboratory Standards Institute (CLSI-M7-A7). Briefly, compounds alone according to the invention were prepared in DMSO and spotted (2 μL each) on sterile polystyrene plates (Corning, 3788). Combinations of compounds and antibiotics dilutions were prepared in DMSO and spotted (1 μL each) on sterile polystyrene plates (Corning, 3788). Log phase bacterial suspensions were adjusted to a final density of 5·10^5 CFU/mL in cation-adjusted Mueller-Hinton broth (ca-MHB; Becton-Dickinson and Company) and added to each well (98 μL). Assays including Fosfomycin were supplemented with 25 μg/ml of Glucose-6-phosphate. Microplates were incubated for 16-20 h at 35° C. in ambient air. The MIC of the compounds was defined as the lowest concentration of said compounds that prevented bacterial growth as read by visual inspection. The MIC of ATB at each compound concentration was defined as the lowest concentration of ATB that prevented bacterial growth as read by visual inspection.

ABA UFR156 = tested on: ABA UFR156
Protocol: as §1

ABA UFR157 = tested on: ABA UFR157
Protocol: as §1

ABA UFR151 = tested on: ABA UFR151
Protocol: as §1

ABA UFR161 = tested on: ABA UFR161
Protocol: as §1

ABA 107292 = tested on: ABA 107292
Protocol: as §1

ABA UFR153 = tested on: ABA UFR153
Protocol: as §1

MIC ATB alone (ABA UFR158; antibiotic alone): 64 µg/mL | MIC ATB combined with Example 1 @8 μg/ml (ABA UFR158; with Example 1 @8 μg/ml): 16 µg/mL | MIC ATB combined with Example 3 @8 μg/ml (ABA UFR158; with Example 3 @8 μg/ml): 16 µg/mL | MIC ATB combined with Example 6 @8 μg/ml (ABA UFR158; with Example 6 @8 μg/ml): <0.25 µg/mL | MIC ATB combined with Example 9 @4 μg/ml (ABA UFR158; with Example 9 @4 μg/ml): 16 µg/mL | MIC ATB combined with Example 10 @8 μg/ml (ABA UFR158; with Example 10 @8 μg/ml): 16 µg/mL | MIC ATB combined with Example 11 @8 μg/ml (ABA UFR158; with Example 11 @8 μg/ml): 16 µg/mL | MIC ATB combined with Example 12 @8 μg/ml (ABA UFR158; with Example 12 @8 μg/ml): 16 µg/mL | MIC ATB combined with Example 15 @4 μg/ml (ABA UFR158; with Example 15 @4 μg/ml): 32 µg/mL | MIC ATB alone (ABA UFR156; antibiotic alone): 64 µg/mL | MIC ATB combined with Example 1 @8 μg/ml (ABA UFR156; with Example 1 @8 μg/ml): 16 µg/mL | MIC ATB combined with Example 3 @8 μg/ml (ABA UFR156; with Example 3 @8 μg/ml): 2 µg/mL | MIC ATB combined with Example 6 @8 μg/ml (ABA UFR156; with Example 6 @8 μg/ml): 4 µg/mL | MIC ATB combined with Example 9 @4 μg/ml (ABA UFR156; with Example 9 @4 μg/ml): 16 µg/mL | MIC ATB combined with Example 10 @8 μg/ml (ABA UFR156; with Example 10 @8 μg/ml): 1 µg/mL | MIC ATB combined with Example 11 @8 μg/ml (ABA UFR156; with Example 11 @8 μg/ml): 8 µg/mL | MIC ATB combined with Example 12 @8 μg/ml (ABA UFR156; with Example 12 @8 μg/ml): 4 µg/mL | MIC ATB combined with Example 15 @4 μg/ml (ABA UFR156; with Example 15 @4 μg/ml): 8 µg/mL | MIC ATB alone (ABA UFR157; antibiotic alone): 64 µg/mL | MIC ATB combined with Example 1 @8 μg/ml (ABA UFR157; with Example 1 @8 μg/ml): 2 µg/mL | MIC ATB combined with Example 3 @8 μg/ml (ABA UFR157; with Example 3 @8 μg/ml): 0.5 µg/mL | MIC ATB combined with Example 6 @8 μg/ml (ABA UFR157; with Example 6 @8 μg/ml): <0.25 µg/mL | MIC ATB combined with Example 9 @4 μg/ml (ABA UFR157; with Example 9 @4 μg/ml): 1 µg/mL | MIC ATB combined with Example 10 @8 μg/ml (ABA UFR157; with Example 10 @8 μg/ml): 1 µg/mL | MIC ATB combined with Example 11 @8 μg/ml (ABA UFR157; with Example 11 @8 μg/ml): 0.5 µg/mL | MIC ATB combined with Example 12 @8 μg/ml (ABA UFR157; with Example 12 @8 μg/ml): 0.5 µg/mL | MIC ATB combined with Example 15 @4 μg/ml (ABA UFR157; with Example 15 @4 μg/ml): 1 µg/mL | MIC ATB alone (ABA UFR151; antibiotic alone): 2 µg/mL | MIC ATB combined with Example 1 @8 μg/ml (ABA UFR151; with Example 1 @8 μg/ml): 0.5 µg/mL | MIC ATB combined with Example 3 @8 μg/ml (ABA UFR151; with Example 3 @8 μg/ml): <=0.25 μg/mL | MIC ATB combined with Example 6 @8 μg/ml (ABA UFR151; with Example 6 @8 μg/ml): <0.25 µg/mL | MIC ATB combined with Example 9 @4 μg/ml (ABA UFR151; with Example 9 @4 μg/ml): 0.5 µg/mL | MIC ATB combined with Example 10 @8 μg/ml (ABA UFR151; with Example 10 @8 μg/ml): <=0.25 μg/mL | MIC ATB combined with Example 11 @8 μg/ml (ABA UFR151; with Example 11 @8 μg/ml): <=0.25 μg/mL | MIC ATB combined with Example 12 @8 μg/ml (ABA UFR151; with Example 12 @8 μg/ml): <=0.25 μg/mL | MIC ATB combined with Example 15 @4 μg/ml (ABA UFR151; with Example 15 @4 μg/ml): <=0.25 μg/mL | MIC ATB alone (ABA UFR161; antibiotic alone): 128 µg/mL | MIC ATB combined with Example 1 @8 μg/ml (ABA UFR161; with Example 1 @8 μg/ml): 32 µg/mL | MIC ATB combined with Example 3 @8 μg/ml (ABA UFR161; with Example 3 @8 μg/ml): 16 µg/mL | MIC ATB combined with Example 6 @8 μg/ml (ABA UFR161; with Example 6 @8 μg/ml): 16 µg/mL | MIC ATB combined with Example 9 @4 μg/ml (ABA UFR161; with Example 9 @4 μg/ml): 8 µg/mL | MIC ATB combined with Example 10 @8 μg/ml (ABA UFR161; with Example 10 @8 μg/ml): 16 µg/mL | MIC ATB combined with Example 11 @8 μg/ml (ABA UFR161; with Example 11 @8 μg/ml): 8 µg/mL | MIC ATB combined with Example 12 @8 μg/ml (ABA UFR161; with Example 12 @8 μg/ml): 8 µg/mL | MIC ATB combined with Example 15 @4 μg/ml (ABA UFR161; with Example 15 @4 μg/ml): 16 µg/mL | MIC ATB alone (ABA 107292; antibiotic alone): 64 µg/mL | MIC ATB combined with Example 1 @8 μg/ml (ABA 107292; with Example 1 @8 μg/ml): 4 µg/mL | MIC ATB combined with Example 3 @8 μg/ml (ABA 107292; with Example 3 @8 μg/ml): 2 µg/mL | MIC ATB combined with Example 6 @8 μg/ml (ABA 107292; with Example 6 @8 μg/ml): 8 µg/mL | MIC ATB combined with Example 9 @4 μg/ml (ABA 107292; with Example 9 @4 μg/ml): 8 µg/mL | MIC ATB combined with Example 10 @8 μg/ml (ABA 107292; with Example 10 @8 μg/ml): 4 µg/mL | MIC ATB combined with Example 11 @8 μg/ml (ABA 107292; with Example 11 @8 μg/ml): 32 µg/mL | MIC ATB combined with Example 12 @8 μg/ml (ABA 107292; with Example 12 @8 μg/ml): 2 µg/mL | MIC ATB combined with Example 15 @4 μg/ml (ABA 107292; with Example 15 @4 μg/ml): 4 µg/mL | MIC ATB alone (ABA UFR153; antibiotic alone): 4 µg/mL | MIC ATB combined with Example 1 @8 μg/ml (ABA UFR153; with Example 1 @8 μg/ml): 1 µg/mL | MIC ATB combined with Example 3 @8 μg/ml (ABA UFR153; with Example 3 @8 μg/ml): <=0.25 μg/mL | MIC ATB combined with Example 6 @8 μg/ml (ABA UFR153; with Example 6 @8 μg/ml): <=0.25 μg/mL
Structure (SMILES): CC1(C)[C@H](C(=O)O)N2C(=O)C[C@H]2S1(=O)=O [SUL]

From US20200024278A1, “COMPOSITION COMPRISING ANTIBIOTIC COMPOUND AND AN HETEROCYCLIC COMPOUND AND THEIR USE IN PREVENTING OR TREATING BACTERIAL INFECTIONS” (MUTABILIS, priority 2016, published 2020)
